ChEMBL document CHEMBL5634112, “Synthesis and biological evaluation of fluoroquinolones containing a pyridoxine derivatives moiety” (Eur J Med Chem, 2023)
≈ marks a conversion by molar mass, not a printed value.

Columns and labels:
[1] = test system: Bacillus subtilis; assay: Antibacterial activity against Bacillus subtilis 168 assessed as reduction in microbial growth incubated for 24 hrs by broth microdilution method; assay type: functional
[2] = test system: Staphylococcus aureus; assay: Antibacterial activity against clinical isolate methicillin resistant Staphylococcus aureus 4771 assessed as reduction in microbial growth incubated for 24 hrs by broth microdilution method; assay type: functional
[3] = test system: Staphylococcus auricularis; assay: Antibacterial activity against clinical isolate Staphylococcus auricularis NKC 7 assessed as reduction in microbial growth incubated for 24 hrs by broth microdilution method; assay type: functional
[4] = test system: Cedecea davisae; assay: Antibacterial activity against clinical isolate Cedecea davisae 1813 assessed as reduction in microbial growth incubated for 24 hrs by broth microdilution method; assay type: functional
[5] = test system: Staphylococcus haemolyticus; assay: Antibacterial activity against clinical isolate Staphylococcus haemolyticus NKC 31/2 assessed as reduction in microbial growth incubated for 24 hrs by broth microdilution method; assay type: functional
[6] = test system: Klebsiella aerogenes; assay: Antibacterial activity against clinical isolate Enterobacter aerogenes NKC 8 assessed as reduction in microbial growth incubated for 24 hrs by broth microdilution method; assay type: functional
[7] = test system: Escherichia coli; assay: Antibacterial activity against clinical isolate Escherichia coli NKC 1 assessed as reduction in microbial growth incubated for 24 hrs by broth microdilution method; assay type: functional
[8] = Cytotoxicity against human CHL assessed as reduction in cell viability incubated for 72 hrs by MTT assay; assay type: toxicity, cell-based; details: CHL cells
[9] = test system: Staphylococcus epidermidis; assay: Antibacterial activity against clinical isolate Staphylococcus epidermidis NKC 37/1 assessed as reduction in microbial growth incubated for 24 hrs by broth microdilution method; assay type: functional
[10] = test system: Staphylococcus epidermidis; assay: Antibacterial activity against clinical isolate Staphylococcus epidermidis assessed as reduction in microbial growth incubated for 24 hrs by broth microdilution method; assay type: functional
[11] = Cytotoxicity against human MSC assessed as reduction in cell viability incubated for 72 hrs by MTT assay; assay type: toxicity, cell-based; details: MSC cells
[12] = test system: Staphylococcus aureus; assay: Antibacterial activity against methicillin sensitive Staphylococcus aureus ATCC 29213 assessed as reduction in microbial growth incubated for 24 hrs by broth microdilution method; assay type: functional
[13] = test system: Staphylococcus aureus; assay: Antibacterial activity against clinical isolate Staphylococcus aureus 4721 assessed as reduction in microbial growth incubated for 24 hrs by broth microdilution method; assay type: functional
[14] = test system: Pseudomonas aeruginosa; assay: Antibacterial activity against Pseudomonas aeruginosa ATCC 27853 assessed as reduction in microbial growth incubated for 24 hrs by broth microdilution method; assay type: functional
[15] = test system: Escherichia coli; assay: Antibacterial activity against Escherichia coli ATCC 25922 assessed as reduction in microbial growth incubated for 24 hrs by broth microdilution method; assay type: functional
[16] = Cytotoxicity against human HSF assessed as reduction in cell viability incubated for 72 hrs by MTT assay; assay type: toxicity, cell-based; details: HSF cells
[17] = test system: Enterococcus faecalis; assay: Antibacterial activity against clinical isolate Enterococcus faecalis 1465 assessed as reduction in microbial growth incubated for 24 hrs by broth microdilution method; assay type: functional
[18] = test system: Klebsiella pneumoniae; assay: Antibacterial activity against clinical isolate Klebsiella pneumoniae 1678 assessed as reduction in microbial growth incubated for 24 hrs by broth microdilution method; assay type: functional
[19] = test system: Pseudomonas aeruginosa; assay: Antibacterial activity against clinical isolate Pseudomonas aeruginosa NKC 17 assessed as reduction in microbial growth incubated for 24 hrs by broth microdilution method; assay type: functional
[20] = test system: Staphylococcus haemolyticus; assay: Antibacterial activity against clinical isolate Staphylococcus haemolyticus 1464 assessed as reduction in microbial growth incubated for 24 hrs by broth microdilution method; assay type: functional
[21] = test system: Salmonella typhimurium; assay: Antibacterial activity against Salmonella typhimurium TA100 assessed as reduction in microbial growth incubated for 24 hrs by broth microdilution method; assay type: functional, Salmonella enterica subsp. enterica serovar Typhimurium; details: Salmonella enterica
[22] = test system: Staphylococcus aureus; assay: Antibacterial activity against clinical isolate Staphylococcus aureus 1812 assessed as reduction in microbial growth incubated for 24 hrs by broth microdilution method; assay type: functional
[23] = test system: Micrococcus luteus; assay: Antibacterial activity against clinical isolate Micrococcus luteus assessed as reduction in microbial growth incubated for 24 hrs by broth microdilution method; assay type: functional
[24] = molecular target: Topoisomerase IV (Staphylococcus aureus, UniProt P0C1S7+P0C1U9); assay: Inhibition of Staphylococcus aureus topoisomerase-IV assessed as reduction in decatenation using kinetoplast DNA as substrate incubated for 30 mins by ethidium bromide staining based agarose gel electrophoresis method; assay type: protein-complex assay
[25] = test system: Staphylococcus aureus; assay: In vivo antibacterial activity against Staphylococcus aureus N-10 infected in Po dosed SHK mouse model of sepsis assessed as survival measured after 14 days; assay type: functional; details: N-10, 336 h, time 14 day

SMILES	MIC [1] [µg/mL]	MIC [2] [µg/mL]	MIC [3] [µg/mL]	MIC [4] [µg/mL]	MIC [5] [µg/mL]	MIC [6] [µg/mL]	MIC [7] [µg/mL]	CC50 at 72 h [8] [µg/mL]	MIC [9] [µg/mL]	MIC [10] [µg/mL]	CC50 at 72 h [11] [µg/mL]	MIC [12] [µg/mL]	MIC [13] [µg/mL]	MIC [14] [µg/mL]	MIC [15] [µg/mL]	CC50 at 72 h [16] [µg/mL]	MIC [17] [µg/mL]	MIC [18] [µg/mL]	MIC [19] [µg/mL]	MIC [21] [µg/mL]	further results
COc1c(N2C[C@@H]3CCCN(Cc4cnc(C)c5c4COC(C)(C)O5)[C@@H]3C2)c(F)cc2c(=O)c(C(=O)O)cn(C3CC3)c12	2	4	0.03	0.5	32	64	4	2.85 (≈ 4.81 µM)	1	2	3.84 (≈ 6.48 µM)	2	0.5	> 64	> 64	3.44 (≈ 5.8 µM)	32	32	> 64	4	MIC [20]: 0.5 µg/mL; MIC [22]: 1 µg/mL; MIC [23]: 4 µg/mL
COc1c(N2C[C@@H]3CCCN(Cc4nc(C)c(O)c(CO)c4CO)[C@@H]3C2)c(F)cc2c(=O)c(C(=O)O)cn(C3CC3)c12.Cl	2	0.25	0.03	0.25	8	4	2	24.2	0.25	2	31.7	2	0.5	> 64	> 64	33.9	4	64	32	2	MIC [20]: 0.5 µg/mL; MIC [22]: 0.5 µg/mL; MIC [23]: 2 µg/mL
COc1c(N2C[C@@H]3CCCN(Cc4cnc(C)c(O)c4CO)[C@@H]3C2)c(F)cc2c(=O)c(C(=O)O)cn(C3CC3)c12.Cl	2	0.13	0.03	0.13	8	8	4	18.6	0.06	2	48.4	2	0.13	> 64	> 64	56.7	1	> 64	64	4	MIC [20]: 0.13 µg/mL; MIC [22]: 0.25 µg/mL; MIC [23]: 4 µg/mL
CCn1cc(C(=O)O)c(=O)c2cc(F)c(N3CCN(Cc4cnc(C)c(O)c4CO)C(C)C3)c(F)c21.Cl (stereo not given)	0.5	1	0.13	2	16	8	2	7.85	1	1	13.1	2	1	4	8	22.3	8	> 64	> 64	2	MIC [20]: 1 µg/mL; MIC [22]: 1 µg/mL; MIC [23]: 0.5 µg/mL
CCCC1OCc2c(CN3CCC[C@H]4CN(c5c(F)cc6c(=O)c(C(=O)O)cn(C7CC7)c6c5OC)C[C@H]43)cnc(C)c2O1 (stereo not given in full)	2	4	0.13	2	64	64	4	2.46 (≈ 4.05 µM)	4	2	2.91 (≈ 4.8 µM)	2	2	> 64	> 64	2.34 (≈ 3.86 µM)	64	> 64	> 64	4	MIC [20]: 2 µg/mL; MIC [22]: 4 µg/mL; MIC [23]: 2 µg/mL
COc1c(N2C[C@@H]3CCCN[C@@H]3C2)c(F)cc2c(=O)c(C(=O)O)cn(C3CC3)c12 [MOXIFLOXACIN]	2							35 (≈ 87.2 µM)			39.4 (≈ 98.2 µM)	0.5		4	1	36.5 (≈ 90.8 µM)				1	IC50 [24]: 29.9 µM
CCn1cc(C(=O)O)c(=O)c2cc(F)c(N3CCN(Cc4nc(C)c5c(c4CO)COC(C)(C)O5)CC3)cc21	2	4	0.25	2	32	32	16	7.05 (≈ 13 µM)	4	8	16.2 (≈ 30 µM)	2	4	> 64	> 64	24.9 (≈ 46 µM)	> 64	> 64	64	2	MIC [20]: 4 µg/mL; MIC [22]: 8 µg/mL; MIC [23]: 4 µg/mL
O=C(O)c1cn(C2CC2)c2cc(N3CCNCC3)c(F)cc2c1=O [CIPROFLOXACIN]	0.5							29.3 (≈ 88.5 µM)			41.6 (≈ 126 µM)			1		52.8 (≈ 159 µM)				1	ED50 [25]: 11.2 mg/kg
CCn1cc(C(=O)O)c(=O)c2cc(F)c(N3CCN(Cc4cnc(C)c5c4COCO5)CC3)cc21.Cl	2	1	0.03	0.25	8	1	0.13	9.78	2	2	21.2	2	1	> 64	4	23.4	32	4	2	2	MIC [20]: 1 µg/mL; MIC [22]: 2 µg/mL; MIC [23]: 4 µg/mL
COc1c(N2C[C@@H]3CCCN(Cc4nc(C)c5c(c4CO)COC(C)(C)O5)[C@@H]3C2)c(F)cc2c(=O)c(C(=O)O)cn(C3CC3)c12	2	1	0.03	0.5	32	16	8	6.41 (≈ 10.3 µM)	2	4	7.26 (≈ 11.7 µM)	2	1	> 64	> 64	11.3 (≈ 18.1 µM)	16	64	> 64	2	MIC [20]: 1 µg/mL; MIC [22]: 2 µg/mL; MIC [23]: 2 µg/mL
